Assay results published in patent US11654292B2 (priority 2017, dated 2023).
Like-named read-outs stand apart in the source and are kept apart here.

Experiments:
[1] = system: MCF-10a normal breast epithelial cells; assay: Cell lysis, digoxin with 80 mT pulsed magnetic field in solenoid; assay type: cell-based; details: 100 nM digoxin + 80 mT magnetic pulses at 25 Hz
From the text: (§1) Tubes were placed in an 8″1X 2.5″dia. solenoid with 697 turns (500 ft.) of 12 ga copper wire. A 5VDC current from an AE Techron 7224 DC-extended AC amplifier pulsed at 25 Hz, with a 10 msec ramp and fall, controlled by a Techtronics AFG 3021B waveform generator produced 80 mT magnetic pulses in the solenoid.

[2] = system: MDA-MB-231 breast cancer cells; assay: as above; assay type: cell-based; details: 100 nM digoxin + 80 mT magnetic pulses at 25 Hz, within 10 min
From the text: as §1

MDA-MB-231 xenografts = assay: In vivo TOL (digoxin + PMF) in mice with MDA-MB-231 xenografts; design: species or system J/Nu mice
Description: This protocol establishes steady-state pharmacokinetics in even poorly vascularized tissues. The mice were exposed to the pulsed magnetic field, using the same parameters as with the cultured cells, for 15 min starting 30 min after the last injection. This treatment was repeated two and four days after the first treatment. Mice were sacrificed and fixed with 4% paraformaldehyde 24 hrs after the third treatment. Tissues from these animals were sectioned and evaluated by a pathologist that was blind to the treatment.

MDA-MB-231 cells [3] = assay: Sodium dependence of TOL in Ringer's solution with or without sodium; assay type: cell-based; details: Homo sapiens, MDA-MB-231, 10 min
Description: FIG. 2 TOL is dependent on the presence of sodium.
A study was conducted where the culture media containing MDA-MB-231 cells was replaced with Ringer's solution with or without sodium and then stimulated with pulsed magnetic fields of 80 mT for 10 minutes. Cells were transferred to microfuge tubes containing either Ringers +Na^+ or Ringers−Na^+.

MDA-MB-231 cells [4] = assay: Stimulus intensity-response curve of pulsed magnetic field for cell lysis; assay type: cell-based; details: 500 nM digoxin, PMF stimulus intensity 80 mT (FIG. 1)
Description: FIG. 1 Stimulus intensity—response curve to determine the strength of the pulsed magnetic field necessary to produce cell lysis of MDA-MB-231 cells, in vitro (p<0.01).
A study was conducted where cells were pulsed with an increasing stimulus intensity to determine the strength of the pulsed magnetic field necessary to produce cell lysis of MDA-MB-231 cells in vitro. […] All tubes were exposed to a 0 to 80 mT PMF.

[5] = system: mouse breast cancer, 4T1, cells; assay: In vivo TOL (digoxin + PMF) in immune competent mice with 4T1 tumors; design: species or system BALBc mice; details: 7 mg/kg digoxin s.c. x5 + PMF 30 min on day 0, 2 and 4 (TOL), FIG. 7
Description: FIG. 7A. […] Arrows indicate days of treatment; 7B. […] Thus, the life expectancy of mice treated with TOL exceeds that of controls by approximately 1 week.
This treatment was administered on day 0 (first day of treatment), on day 2 and on day 4. Mice were monitored for tumor growth and were sacrificed when they met the NIH criteria for humane endpoint euthanasia.

MDA-MB-231 cells [6] = assay: Trypan Blue estimate of cell lysis, ouabain with or without pulsed z-gradient magnetic field (MRI); assay type: cell-based
Description: Two tubes of MDA-MB-231 cells were prepared. The media in one tube was replaced by media containing 100 nM ouabain to block the sodium pumps. Both tubes were placed in the MRI and offset from center by 317 mm in the z-gradient field and exposed to the pulsed magnetic field. The samples were then repositioned and imaged.
After imaging, the cells in each vial were stained with Trypan Blue to estimate the number of cells that had been lysed by each treatment: (A) magnetic stimulation alone or (B) ouabain and magnetic stimulation. Virtually all of the cells that had only been exposed to pulsed magnet field stimulation were alive (expelled the Trypan Blue stain) and 10-15% of the cells that had been simultaneously treated with ouabain and pulse magnetic field stimulation were dead (appeared shrunken and retained the stain).
In this example, cells were exposed to ouabain for over 60 min during the preparation for the magnetic field stimulation. Because lysis may occur in a small percentage of cells when exposed to ouabain alone, a study was conducted where a vial of cells was exposed to ouabain without pulsed field stimulation for greater than 90 min.
The duration, amplitude and frequency of the pulsed z-gradient field was varied. All targeted osmotic lysis (TOL) vials (ouabain and pulsed magnetic field stimulation) were exposed to 100 nM ouabain for 10 min. Ouabain-treated and normal MDA-MB 231 control vials were exposed to the same pulsed magnetic field and then stained with Trypan Blue to estimate the amount of cell lysis in each tube. Two trials were conducted using the maximum field strength available (289.1689 Amp). The pulsed stimulus for the first of these trials was delivered with a rise time of 10 msec, a 2.5 msec return to baseline and an inter-stimulus interval of 17.5 msec; the stimulus was pulsed with a rise time of 10 msec, a 2.5 msec return to baseline and an inter-stimulus interval of 7.5 msec for the second trial. […]

| Structure (SMILES) | cell lysis when stimulated [1] | cells lysed [2] [%] | tumor lysis (MDA-MB-231 xenografts; 5 mg/kg digoxin s.c. five times at 1 hr intervals + PMF 15 min, three treatments (TOL)) | median tumor necrosis score (grade 1-5) vs controls (MDA-MB-231 xenografts; 5 mg/kg digoxin s.c. x5 + PMF (TOL), FIG. 4, p<0.05) | tumor histology, drug-only control vs untreated controls (MDA-MB-231 xenografts; 5 mg/kg digoxin s.c. x5, no magnetic stimulation) | tumor growth rate vs controls (MDA-MB-231 xenografts; TOL (Dig-PMF), FIG. 6) | cytotoxicity at 0.5 µM (MDA-MB-231 cells [3]; read-out: non-viable cells, 500 nM digoxin + 80 mT PMF 10 min (Dig-PMF), Ringers +Na+ (FIG. 2)) [%] | cytotoxicity at 0.5 µM (MDA-MB-231 cells [3]; read-out: non-viable cells, 500 nM digoxin + 80 mT PMF 10 min (Dig-PMF), Ringers without sodium (FIG. 2)) [%] | cell lysis (MDA-MB-231 cells [4]) [%] | time to reach humane endpoint euthanasia criteria vs control groups [5] | cell lysis, kill rate (MDA-MB-231 cells [6]; 100 nM ouabain 10 min + pulsed z-gradient field, amplitude 289.1689, inter-pulse interval 7.5 msec (50 Hz)) | cells dead (retained Trypan Blue stain) (MDA-MB-231 cells [6]; 100 nM ouabain (over 60 min) + pulsed z-gradient magnetic field 5 min, amplitude 187.5973, inter-stimulus interval 17.5 msec) | cells dead (MDA-MB-231 cells [6]; ouabain alone, no pulsed field stimulation, greater than 90 min) |
| --- | --- | --- | --- | --- | --- | --- | --- | --- | --- | --- | --- | --- | --- |
| C[C@H]1O[C@@H](O[C@H]2[C@@H](O)C[C@H](O[C@H]3[C@@H](O)C[C@H](O[C@H]4CC[C@@]5(C)[C@H](CC[C@@H]6[C@@H]5C[C@@H](O)[C@]5(C)[C@@H](C7=CC(=O)OC7)CC[C@]65O)C4)O[C@@H]3C)O[C@@H]2C)C[C@H](O)[C@@H]1O [digoxin] | Neither digoxin-treated nor untreated MCF-10a cells lysed | 97.5 | 80-100% | significantly greater | did not differ from untreated controls | significantly slower | ~70 | < 20 | ~100 | significantly longer |  |  |  |
| C[C@@H]1O[C@@H](O[C@H]2C[C@@H](O)[C@]3(CO)[C@H]4[C@H](O)C[C@]5(C)[C@@H](C6=CC(=O)OC6)CC[C@]5(O)[C@@H]4CC[C@]3(O)C2)[C@H](O)[C@H](O)[C@H]1O [ouabain] |  |  |  |  |  |  |  |  |  |  | 80-90% | 10-15% | Less than 1% |
